Data taken from PMC6026870, “Selective induction of cancer cell death by VDAC1‐based peptides and their potential use in cancer therapy” (Molecular Oncology, 2018).

System: A549 cells
Experiment: Apoptosis, acridine orange/ethidium bromide staining
Assay type: cell-based, human
Details: A549, 3 h; quantitation, mean ± SE (n = 3) (Fig. 5E)
Procedure: For PI and annexin V–FITC staining, A549 or MDA‐MB‐231 cells, untreated or treated with VDAC1‐based peptides, were collected (1500 g for 5 min), washed, and resuspended in 200 μL binding buffer (10 mM HEPES/NaOH (pH 7.4), 140 mM NaCl, and 2.5 mM CaCl2). Annexin V–FITC staining was performed according to the recommended protocol. Cells were then washed once with binding buffer and resuspended in 200 μL binding buffer, to which PI was added immediately before flow cytometric analysis. At least 10 000 events were collected, recorded on a dot plot, and analyzed by flow cytometer. Acridine orange/ethidium bromide staining was carried as described previously (Zaid et al., 2005), with cells visualized by fluorescence microscopy (Olympus LX2‐KSP, Tokyo, Japan), and images were captured with a CCD camera. About 200 cells were counted for each experiment.

SMILES: CC[C@H](C)[C@H](NC(=O)[C@H](Cc1ccc(O)cc1)NC(=O)[C@@H]1CCCN1C(=O)[C@H](CCCNC(=N)N)NC(=O)[C@H](Cc1c[nH]cn1)NC(=O)[C@@H](CO)NC(=O)[C@@H](Cc1c[nH]c2ccccc12)NC(=O)[C@H](NC(=O)[C@@H](Cc1c[nH]c2ccccc12)NC(=O)[C@@H](CCC(=O)O)NC(=O)[C@@H](CCCCN)NC(=O)[C@@H](CCCCN)NC(=O)[C@@H](CC(C)C)NC(=O)[C@@H](CCC(=O)O)NC(=O)[C@H](NC(=O)[C@@H](C)NC(=O)[C@H](NC(=O)[C@@H](CC(N)=O)NC(=O)[C@@H](CC(C)C)NC(=O)[C@@H](C)NC(=O)[C@@H](Cc1c[nH]c2ccccc12)NC(=O)[C@H](NC(=O)[C@@H](C)NC(=O)CNC(=O)[C@@H](CC(N)=O)NC(=O)[C@@H](CO)NC(=O)[C@@H](CC(N)=O)NC(=O)[C@@H](CCCCN)NC(=O)[C@@H](Cc1c[nH]c2ccccc12)NC(=O)[C@H](NC(=O)[C@@H](Cc1c[nH]c2ccccc12)NC(=O)[C@H](N)CCCCN)[C@H](C)O)[C@H](C)O)C(C)C)[C@H](C)O)[C@H](C)O)C(=O)N[C@@H](C)C(=O)N[C@@H](Cc1c[nH]cn1)C(=O)O [R‐Tf‐D‐LP4]
- apoptotic cell death (acridine orange/ethidium bromide): over 70%
